{
  "source": "ChEMBL document CHEMBL5370648",
  "about": "“Rational Design of Bioorthogonally Activatable PROTAC for Tumor-Targeted Protein Degradation” (J Med Chem, 2023)",
  "key": {"MDA-MB-231 [1]": {"test_system": "MDA-MB-231", "assay": "Cytotoxicity against 12 hrs BODIPY-TZ treated human MDA-MB-231 cells assessed as inhbition of cell growth measured after 48 hrs by CCK-8 method", "type": "functional, cell-based"}, "[2]": {"assay": "Toxicity in BALB/c nude mouse assessed as animal death at 10 mg/kg measured after 16 days in presence of IR808-TZ", "type": "organism-based", "conditions": "in vivo, 384 h, time 16 day"}, "[3]": {"target": "T1, von Hippel-Lindau disease tumor suppressor/Bromodomain-containing protein 4 (Homo sapiens, UniProt O60885+P40337)", "T1 sequence (P40337 whole entry, looked up, other chains not shown)": "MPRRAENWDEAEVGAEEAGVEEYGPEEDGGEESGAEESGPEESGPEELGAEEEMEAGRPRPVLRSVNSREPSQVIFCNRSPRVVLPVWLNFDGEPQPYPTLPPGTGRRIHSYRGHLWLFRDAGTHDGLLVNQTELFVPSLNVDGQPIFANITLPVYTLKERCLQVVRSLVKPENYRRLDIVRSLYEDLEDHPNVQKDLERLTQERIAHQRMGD", "assay": "PROTAC activity at BRD4/VHL E3 ligase in 12 hrs BODIPY-TZ treated human T47D cells assessed as suppression of c-Myc expression incubated for 48 hrs by Western blot analysis", "type": "cell-based"}, "[4]": {"target": "T1, von Hippel-Lindau disease tumor suppressor/Bromodomain-containing protein 4", "assay": "PROTAC activity at BRD4/VHL E3 ligase in human MDA-MB-231 cells assessed as decrease in BRD4 expression at upto 2.0 uM incubated for 48 hrs by Western blot analysis", "type": "cell-based"}, "[5]": {"target": "T1, von Hippel-Lindau disease tumor suppressor/Bromodomain-containing protein 4", "assay": "PROTAC activity at BRD4/VHL E3 ligase in 12 hrs BODIPY-TZ treated human MDA-MB-231 cells assessed as degradation of BRD4 expression incubated for 48 hrs by Western blot analysis", "type": "cell-based"}, "[6]": {"target": "T1, von Hippel-Lindau disease tumor suppressor/Bromodomain-containing protein 4", "assay": "PROTAC activity at BRD4/VHL E3 ligase in human T47D cells assessed as decrease in BRD4 expression at upto 2.0 uM incubated for 48 hrs by Western blot analysis", "type": "cell-based"}, "[7]": {"target": "T1, von Hippel-Lindau disease tumor suppressor/Bromodomain-containing protein 4", "assay": "PROTAC activity at BRD4/VHL E3 ligase in 12 hrs BODIPY-TZ treated human T47D cells assessed as activation of caspase-3 expression incubated for 48 hrs by Western blot analysis", "type": "cell-based"}, "[8]": {"target": "T1, von Hippel-Lindau disease tumor suppressor/Bromodomain-containing protein 4", "assay": "PROTAC activity at BRD4/VHL E3 ligase in human MCF7 cells assessed as decrease in BRD4 expression at upto 2.0 uM incubated for 48 hrs by Western blot analysis", "type": "cell-based"}, "MCF7 [9]": {"test_system": "MCF7", "assay": "Antitumor activity against human MCF7 cells xenografted in BALB/c nude mouse assessed as apoptosis at 20 mg/kg measured after 48 hrs in presence of IR808-TZ by Western blot analysis", "type": "functional, organism-based"}, "[10]": {"target": "T1, von Hippel-Lindau disease tumor suppressor/Bromodomain-containing protein 4", "assay": "In vivo PROTAC activity at BRD4/VHL E3 ligase in BALB/c nude mouse xenografted with human MCF7 cells assessed as reduction in BRD4 protein level in tumor 20 mg/kg measured after 48 hrs by Western blot analysis", "type": "functional, organism-based"}, "[11]": {"target": "T1, von Hippel-Lindau disease tumor suppressor/Bromodomain-containing protein 4", "assay": "PROTAC activity at BRD4/VHL E3 ligase in 12 hrs BODIPY-TZ treated human T47D cells assessed as induction of degradation of BRD4 at upto 1000 nM incubated for 48 hrs in presence of MLN4924 by immunofluorescence staining assay", "type": "cell-based"}, "[12]": {"target": "T1, von Hippel-Lindau disease tumor suppressor/Bromodomain-containing protein 4", "assay": "PROTAC activity at BRD4/VHL E3 ligase in 12 hrs BODIPY-TZ treated human MDA-MB-231 cells assessed as suppression of c-Myc expression incubated for 48 hrs by Western blot analysis", "type": "cell-based"}, "T47D [13]": {"test_system": "T47D", "assay": "Cytotoxicity against human T47D cells assessed as inhbition of cell growth measured after 48 hrs by CCK-8 method", "type": "functional, cell-based"}, "[14]": {"target": "T1, von Hippel-Lindau disease tumor suppressor/Bromodomain-containing protein 4", "assay": "PROTAC activity at BRD4/VHL E3 ligase in 12 hrs BODIPY-TZ treated human MCF7 cells assessed as suppression of c-Myc expression incubated for 48 hrs by Western blot analysis", "type": "cell-based"}, "MCF7 [15]": {"test_system": "MCF7", "assay": "Antitumor activity against human MCF7 cells xenografted in BALB/c nude mouse assessed as fold increase in tumor volume at 20 mg/kg measured at day 23 post injection", "type": "functional", "conditions": "time 23 day"}, "[16]": {"target": "T1, von Hippel-Lindau disease tumor suppressor/Bromodomain-containing protein 4", "assay": "PROTAC activity at BRD4/VHL E3 ligase in human MDA-MB-231 cells assessed as induction of degradation of intracellular BRD4 at 200 nM incubated for 48 hrs by immunofluorescence staining assay", "type": "cell-based"}, "[17]": {"target": "T2, von Hippel-Lindau disease tumor suppressor/Bromodomain-containing protein 3 (Homo sapiens) (UniProt Q15059+P40337)", "T2 sequence (P40337 whole entry partner)": "as the sequence (P40337 whole entry, looked up, other chains not shown) above", "T2 sequence (Q15059 2-726 limits assumed)": "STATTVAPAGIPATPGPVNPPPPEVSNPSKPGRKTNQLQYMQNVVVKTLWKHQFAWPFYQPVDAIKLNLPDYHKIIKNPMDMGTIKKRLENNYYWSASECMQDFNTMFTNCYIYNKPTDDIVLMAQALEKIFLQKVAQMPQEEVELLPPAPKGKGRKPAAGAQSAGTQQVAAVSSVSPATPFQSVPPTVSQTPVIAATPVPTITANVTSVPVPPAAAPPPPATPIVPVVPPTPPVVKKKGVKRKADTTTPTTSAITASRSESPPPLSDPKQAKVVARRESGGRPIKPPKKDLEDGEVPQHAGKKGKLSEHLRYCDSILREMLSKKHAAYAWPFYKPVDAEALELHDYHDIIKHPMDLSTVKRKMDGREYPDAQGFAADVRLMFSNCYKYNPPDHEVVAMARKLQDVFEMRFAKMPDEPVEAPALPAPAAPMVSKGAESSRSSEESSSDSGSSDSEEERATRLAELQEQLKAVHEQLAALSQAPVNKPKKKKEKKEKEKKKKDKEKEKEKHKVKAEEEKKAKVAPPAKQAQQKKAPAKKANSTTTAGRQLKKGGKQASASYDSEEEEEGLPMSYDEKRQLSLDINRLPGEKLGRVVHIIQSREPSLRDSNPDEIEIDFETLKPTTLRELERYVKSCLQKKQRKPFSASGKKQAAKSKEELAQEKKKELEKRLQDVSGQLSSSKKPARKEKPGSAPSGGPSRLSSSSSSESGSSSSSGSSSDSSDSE", "assay": "PROTAC activity at BRD3/VHL E3 ligase in 12 hrs BODIPY-TZ treated human MCF7 cells assessed as reduction in BRD3 expression at upto 2.0 uM incubated for 48 hrs by Western blot analysis", "type": "cell-based"}, "[18]": {"target": "T1, von Hippel-Lindau disease tumor suppressor/Bromodomain-containing protein 4", "assay": "PROTAC activity at BRD4/VHL E3 ligase in 12 hrs BODIPY-TZ treated human T47D cells assessed as reduction in BRD4 expression at upto 2.0 uM incubated for 48 hrs by Western blot analysis", "type": "cell-based"}, "[19]": {"target": "T1, von Hippel-Lindau disease tumor suppressor/Bromodomain-containing protein 4", "assay": "In vivo PROTAC activity at BRD4/VHL E3 ligase in BALB/c nude mouse xenografted with human MCF7 cells assessed as reduction in BRD4 protein level in tumor 10 mg/kg measured after 48 hrs in presence of IR808-TZ by Western blot analysis", "type": "functional, organism-based"}, "[20]": {"target": "T1, von Hippel-Lindau disease tumor suppressor/Bromodomain-containing protein 4", "assay": "PROTAC activity at BRD4/VHL E3 ligase in 12 hrs BODIPY-TZ treated human MDA-MB-231 cells assessed as reduction in BRD4 expression at upto 2.0 uM incubated for 48 hrs by Western blot analysis", "type": "cell-based"}, "MCF7 [21]": {"test_system": "MCF7", "assay": "Antitumor activity against IR808-TZ treated human MCF7 cells xenografted in BALB/c nude mouse assessed as fold increase in tumor volume at 20 mg/kg measured at day 23 post injection", "type": "functional", "conditions": "time 23 day"}, "[22]": {"target": "T1, von Hippel-Lindau disease tumor suppressor/Bromodomain-containing protein 4", "assay": "PROTAC activity at BRD4/VHL E3 ligase in 12 hrs BODIPY-TZ treated human MCF7 cells assessed as degradation of BRD4 expression incubated for 48 hrs by Western blot analysis", "type": "cell-based"}, "[23]": {"target": "T1, von Hippel-Lindau disease tumor suppressor/Bromodomain-containing protein 4", "assay": "PROTAC activity at BRD4/VHL E3 ligase in 12 hrs BODIPY-TZ treated human MCF7 cells assessed as activation of caspase-3 expression incubated for 48 hrs by Western blot analysis", "type": "cell-based"}, "MDA-MB-231 [24]": {"test_system": "MDA-MB-231", "assay": "Cytotoxicity against human MDA-MB-231 cells assessed as inhbition of cell growth measured after 48 hrs by CCK-8 method", "type": "functional, cell-based", "conditions": "MDA-MB-231, 48 h"}, "[25]": {"target": "T2, von Hippel-Lindau disease tumor suppressor/Bromodomain-containing protein 3 (Homo sapiens)", "assay": "PROTAC activity at BRD3/VHL E3 ligase in 12 hrs BODIPY-TZ treated human MDA-MB-231 cells assessed as reduction in […] expression at upto 2.0 uM incubated for 48 hrs by Western blot analysis", "type": "cell-based"}, "[26]": {"target": "T2, von Hippel-Lindau disease tumor suppressor/Bromodomain-containing protein 3 (Homo sapiens)", "assay": "PROTAC activity at BRD3/VHL E3 ligase in 12 hrs BODIPY-TZ treated human T47D cells assessed as reduction in BRD3 expression at upto 2.0 uM incubated for 48 hrs by Western blot analysis", "type": "cell-based"}, "[27]": {"target": "T1, von Hippel-Lindau disease tumor suppressor/Bromodomain-containing protein 4", "assay": "PROTAC activity at BRD4/VHL E3 ligase in 12 hrs BODIPY-TZ treated human T47D cells assessed as induction of degradation of BRD4 at upto 1000 nM incubated for 48 hrs in presence of MG132 by immunofluorescence staining assay", "type": "cell-based"}, "T47D [28]": {"test_system": "T47D", "assay": "Cytotoxicity against 12 hrs BODIPY-TZ treated human T47D cells assessed as inhbition of cell growth measured after 48 hrs by CCK-8 method", "type": "functional, cell-based"}, "MCF7 [29]": {"test_system": "MCF7", "assay": "Antitumor activity against IR808-TZ treated human MCF7 cells xenografted in BALB/c nude mouse assessed as tumor growth inhibition at 20 mg/kg measured after 16 days", "type": "functional, organism-based", "conditions": "time 16.0 day"}, "[30]": {"target": "T1, von Hippel-Lindau disease tumor suppressor/Bromodomain-containing protein 4", "assay": "PROTAC activity at BRD4/VHL E3 ligase in 12 hrs BODIPY-TZ treated human MCF7 cells assessed as reduction in BRD4 expression at upto 2.0 uM incubated for 48 hrs by Western blot analysis", "type": "cell-based"}, "[31]": {"assay": "Retention time of the compound by HPLC method", "type": "physicochemical"}},
  "note": "Active and inactive are the calls of the source. The calls are words filed in the database; no cut-off is given here.",
  "data": [
    {"smiles": "CC1=CC(C)=[N+]2C1=C(c1cccc(-c3nnc(C)nn3)c1)c1c(C)cc(C)n1[B-]2(F)F", "values": [
      {"measurement": "IC50", "setting": "MDA-MB-231 [1]", "value": 326, "unit": "nM"},
      {"measurement": "Activity", "setting": "[2]", "value": "Toxic"},
      {"measurement": "Activity", "setting": "[3]", "value": "Active"},
      {"measurement": "Activity", "setting": "[4]", "value": "inactive"},
      {"measurement": "Activity", "setting": "[5]", "value": "Active"},
      {"measurement": "Activity", "setting": "[6]", "value": "inactive"},
      {"measurement": "Activity", "setting": "[7]", "value": "Active"},
      {"measurement": "Activity", "setting": "[8]", "value": "inactive"},
      {"measurement": "Activity", "setting": "MCF7 [9]", "value": "Active"},
      {"measurement": "Activity", "setting": "[10]", "value": "inactive"},
      {"measurement": "Activity", "setting": "[11]", "value": "inactive"},
      {"measurement": "Activity", "setting": "[12]", "value": "Active"},
      {"measurement": "IC50", "setting": "T47D [13]", "value": 1760, "unit": "nM"},
      {"measurement": "Activity", "setting": "[14]", "value": "Active"},
      {"measurement": "fold change (FC)", "setting": "MCF7 [15]", "value": 5.98},
      {"measurement": "Activity", "setting": "[16]", "value": "inactive"},
      {"measurement": "Activity", "setting": "[17]", "value": "Active"},
      {"measurement": "Activity", "setting": "[18]", "value": "Active"},
      {"measurement": "Activity", "setting": "[19]", "value": "Active"},
      {"measurement": "Activity", "setting": "[20]", "value": "Active"},
      {"measurement": "fold change (FC)", "setting": "MCF7 [21]", "value": 1.74},
      {"measurement": "Activity", "setting": "[22]", "value": "Active"},
      {"measurement": "Activity", "setting": "[23]", "value": "Active"},
      {"measurement": "IC50", "setting": "MDA-MB-231 [24]", "value": 652, "unit": "nM"},
      {"measurement": "Activity", "setting": "[25]", "value": "Active"},
      {"measurement": "Activity", "setting": "[26]", "value": "Active"},
      {"measurement": "Activity", "setting": "[27]", "value": "inactive"},
      {"measurement": "IC50", "setting": "T47D [28]", "value": 407, "unit": "nM"},
      {"measurement": "Activity", "setting": "MCF7 [29]", "value": "Active"},
      {"measurement": "Activity", "setting": "[30]", "value": "Active"},
      {"measurement": "Retention_time", "setting": "[31]", "value": 19.92, "unit": "min"}
    ]}
  ]
}
